Results on 27 molecules are retold here after patent US8497278B2, “Imidazo[1,2-a]pyridine compounds” (priority 2008, dated 2013).

Molecules are shown by their SMILES.

This experiment relates to central benzodiazepine receptors. Put plainly: Central benzodiazepine receptor binding (test of Speth et al.). To be noted: 1000 nM of the compound. Summed up: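 Radioligand binding by the Speth et al. method. Specific binding is total minus nonspecific binding, the latter measured with excess unlabelled ligand. Compounds screened at 1.0E-09, 1.0E-07 and 1.0E-05 M in single determination; values given as percent inhibition at 1000 nM compound.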
For `CCOC(=O)c1cc2ccccc2n1Cc1c(-c2ccc(Cl)cc2)nc2ccccn12` [Compound 37, Ethyl 1-((2-(4-chlorophenyl)imidazo[1,2-a]pyridin-3-yl)methyl)-1H-indole-2-carboxylate], the “% Inhibition at 1000 nM for CBZD” value is recorded as “− (percentage of inhibition of central BZD site binding is less than 50% in the presence of 1000 nM of the compound)”. In the case of `Cc1ccc(-c2nc3ccc(C)cn3c2CNc2ncncn2)cc1` [Compound 146, (6-Methyl-2-p-tolyl-imidazo[1,2-a]pyridin-3-ylmethyl)-[1,3,5]triazin-2-yl-amine] it was “++ (percentage of inhibition of central BZD site binding is greater than 80% in the presence of 1000 nM of the compound)”.

`Cc1ccc(-c2nc3ccc(C)cn3c2CNc2nc3ccccc3n2C)cc1` [Compound 154, 1-methyl-N-((6-methyl-2-p-tolylH-imidazo[1,2-a]pyridin-3-yl)methyl)-1H-benzo[d]imidazol-2-amine]: the “% Inhibition at 1000 nM for CBZD” value is reported as “++ (percentage of inhibition of central BZD site binding is greater than 80% in the presence of 1000 nM of the compound)”. For `Cc1nc(Cc2c(-c3ccc(F)cc3)nc3ccc(F)cn23)no1` [Compound 201, 3-((6-fluoro-2-(4-fluoropnyl)imidazo[1,2-a]pyridin-3-yl)methyl)-5-methyl-1,2,4-oxadiazole], the “% Inhibition at 1000 nM for CBZD” value is given as “++ (percentage of inhibition of central BZD site binding is greater than 80% in the presence of 1000 nM of the compound)”. To `Cc1ccc(-c2nc3ccc(C)cn3c2Cn2ncnc2C(N)=O)cc1` [Compound 69, 2-(6-Methyl-2-p-tolyl-imidazo[1,2-a]pyridin-3-ylmethyl)-2H-[1,2,4]triazole-3-carboxylic acid amide] belongs “++ (percentage of inhibition of central BZD site binding is greater than 80% in the presence of 1000 nM of the compound)”; to `O=C1CCCN1Cc1c(-c2ccc(Cl)cc2)nc2ccc(Cl)cn12` [Compound 112, 1-((6-chloro-2-(4-chlorophenyl)H-imidazo[1,2-a]pyridin-3-yl)methyl)pyrrolidin-2-one], “++ (percentage of inhibition of central BZD site binding is greater than 80% in the presence of 1000 nM of the compound)”; to `Cc1ccc2nc(-c3ccc(F)cc3)c(CNc3nc(F)cc(F)n3)n2c1` [Compound 166, 4,6-difluoro-N-((2-(4-fluorophenyl)-6-methylimidazo[1,2-a]pyridin-3-yl)methyl)pyrimidin-2-amine], “++ (percentage of inhibition of central BZD site binding is greater than 80% in the presence of 1000 nM of the compound)”. With `Cc1ccc(-c2nc3ccc(C)cn3c2CN2CCCCC2=O)cc1` [Compound 95, 1-((6-methyl-2-p-tolyl-H-imidazo[1,2-a]pyridin-3-yl)methyl)piperidin-2-one], the “% Inhibition at 1000 nM for CBZD” value was “++ (percentage of inhibition of central BZD site binding is greater than 80% in the presence of 1000 nM of the compound)”. With `Cc1ccc(-c2nc3ccc(C)cn3c2CNc2ccccn2)cc1` [Compound 140, N-((6-methyl-2-p-tolylH-imidazo[1,2-a]pyridin-3-yl)methyl)pyridin-2-amine], the “% Inhibition at 1000 nM for CBZD” value is recorded as “++ (percentage of inhibition of central BZD site binding is greater than 80% in the presence of 1000 nM of the compound)”. In the case of `CN(C)C(=O)c1ncnn1Cc1c(-c2ccc(Cl)cc2)nc2ccccn12` [Compound 74, 1-((2-(4-chlorophenyl)imidazo[1,2-a]pyridin-3-yl)methyl)-N,N-dimethyl-1H-1,2,4-triazole-5-carboxamide] it was “++ (percentage of inhibition of central BZD site binding is greater than 80% in the presence of 1000 nM of the compound)”; in that of `Cc1ccc(-c2nc3ccc(C)cn3c2Cn2ccnc2-c2ccccc2)cc1` [Compound 13, 6-Methyl-3-((2-phenyl-1H-imidazol-1-yl)methyl)-2-p-tolylH-imidazo[1,2-a]pyridine], “+ (percentage of inhibition of central BZD site binding is greater than 50% but less than 80% in the presence of 1000 nM of the compound)”; in that of `Cc1ccc(-c2nc3ccc(C)cn3c2Cn2cnc(Cl)c2Cl)cc1` [Compound 3, 3-((4,5-Dichloro-1H-imidazol-1-yl)methyl)-6-methyl-2-p-tolylH-imidazo[1,2-a]pyridine], “+ (percentage of inhibition of central BZD site binding is greater than 50% but less than 80% in the presence of 1000 nM of the compound)”. To `Cc1ccc(-c2nc3ccc(C)cn3c2CN2CCN(C)C2=O)cc1` [Compound 92, 1-methyl-3-((6-methyl-2-p-tolylH-imidazo[1,2-a]pyridin-3-yl)methyl)imidazolidin-2-one] belongs “++ (percentage of inhibition of central BZD site binding is greater than 80% in the presence of 1000 nM of the compound)”; to `COC(=O)c1nn(Cc2c(-c3ccc(Cl)cc3)nc3ccccn23)c2ccccc12` [Compound 34, Methyl 1-((2-(4-chlorophenyl)imidazo[1,2-a]pyridin-3-yl)methyl)-1H-indazole-3-carboxylate], “+ (percentage of inhibition of central BZD site binding is greater than 50% but less than 80% in the presence of 1000 nM of the compound)”; to `Cc1cccc(=O)n1Cc1c(-c2ccc(Cl)cc2)nc2ccc(Cl)cn12` [Compound 107, 1-((6-chloro-2-(4-chlorophenyl)H-imidazo[1,2-a]pyridin-3-yl)methyl)-6-methylpyridin-2(1H)-one], “++ (percentage of inhibition of central BZD site binding is greater than 80% in the presence of 1000 nM of the compound)”. On to `Clc1ccc(-c2nc3ccccn3c2Cn2cnnn2)cc1` [Compound 41, 3-((1H-tetrazol-1-yl)methyl)-2-(4-chlorophenyl)imidazo[1,2-a]pyridine], for which the “% Inhibition at 1000 nM for CBZD” value was “++ (percentage of inhibition of central BZD site binding is greater than 80% in the presence of 1000 nM of the compound)”. As for `Fc1ccc(-c2nc3ccccn3c2Cn2ccnn2)cc1` [Compound 48, 3-((1H-1,2,3-triazol-1-yl)methyl)-2-(4-fluorophenyl)H-imidazo[1,2-a]pyridine], the “% Inhibition at 1000 nM for CBZD” value was “++ (percentage of inhibition of central BZD site binding is greater than 80% in the presence of 1000 nM of the compound)”. Take `Cc1ccc(-c2nc3ccc(C)cn3c2Cn2ccsc2=S)cc1` [Compound 131, 3-((6-Methyl-2-p-tolylH-imidazo[1,2-a]pyridin-3-yl)methyl)thiazole-2(3H)-thione]: the “% Inhibition at 1000 nM for CBZD” value is “++ (percentage of inhibition of central BZD site binding is greater than 80% in the presence of 1000 nM of the compound)”.

Turning to `O=c1ccccn1Cc1c(-c2ccc(Cl)cc2)nc2ccc(F)cn12` [Compound 122, 1-((2-(4-chlorophenyl)-6-fluoroimidazo[1,2-a]pyridin-3-yl)methyl)pyridin-2(1H)-one], the “% Inhibition at 1000 nM for CBZD” value was “++ (percentage of inhibition of central BZD site binding is greater than 80% in the presence of 1000 nM of the compound)”.

Consider `Cl.Clc1ccc(-c2nc3ccc(Cl)cn3c2CNc2ncccn2)cc1` [Compound 156, N-((6-chloro-2-(4-chlorophenyl)H-imidazo[1,2-a]pyridin-3-yl)methyl)pyrimidin-2-amine hydrochloride], for which the “% Inhibition at 1000 nM for CBZD” value was “++ (percentage of inhibition of central BZD site binding is greater than 80% in the presence of 1000 nM of the compound)”. In the case of `O=c1ccccn1Cc1c(-c2ccc(Cl)cc2)nc2ccc(Cl)cn12` [Compound 104, 1-((6-chloro-2-(4-chlorophenyl)H-imidazo[1,2-a]pyridin-3-yl)methyl)pyridin-2(1H)-one] it was “++ (percentage of inhibition of central BZD site binding is greater than 80% in the presence of 1000 nM of the compound)”.

As for `Cc1ccc(-c2nc3ccc(C)cn3c2CSc2nc[nH]n2)cc1` [Compound 177, 6-Methyl-2-p-tolyl-3-(1H-[1,2,4]triazol-3-ylsulfanylmethyl)-imidazo[1,2-a]pyridine], the “% Inhibition at 1000 nM for CBZD” value is listed as “+ (percentage of inhibition of central BZD site binding is greater than 50% but less than 80% in the presence of 1000 nM of the compound)”. Turning to `Fc1ccc(-c2nc3ccccn3c2Cn2cncn2)cc1` [Compound 54, 3-((1H-1,2,4-triazol-1-yl)methyl)-2-(4-fluorophenyl)H-imidazo[1,2-a]pyridine], the “% Inhibition at 1000 nM for CBZD” value was “++ (percentage of inhibition of central BZD site binding is greater than 80% in the presence of 1000 nM of the compound)”. With `CNC(=O)c1cc(C)n(Cc2c(-c3ccc(Cl)cc3)nc3ccccn23)n1` [Compound 80, 1-((2-(4-chlorophenyl)imidazo[1,2-a]pyridin-3-yl)methyl)-N,5-dimethyl-1H-pyrazole-3-carboxamide], the “% Inhibition at 1000 nM for CBZD” value is given as “++ (percentage of inhibition of central BZD site binding is greater than 80% in the presence of 1000 nM of the compound)”. Regarding `O=C1OCCN1Cc1c(-c2ccc(Cl)cc2)nc2ccc(Cl)cn12` [Compound 111, 3-((6-chloro-2-(4-chlorophenyl)H-imidazo[1,2-a]pyridin-3-yl)methyl)oxazolidin-2-one], the “% Inhibition at 1000 nM for CBZD” value is “++ (percentage of inhibition of central BZD site binding is greater than 80% in the presence of 1000 nM of the compound)”. Regarding `CCOC(=O)c1nccn1Cc1c(-c2ccc(C)cc2)nc2ccc(C)cn12` [Compound 12, 1-(6-Methyl-2-p-tolyl-imidazo[1,2-a]pyridin-3-ylmethyl)-1H-imidazole-2-carboxylic acid ethyl ester], the “% Inhibition at 1000 nM for CBZD” value is recorded as “++ (percentage of inhibition of central BZD site binding is greater than 80% in the presence of 1000 nM of the compound)”. As to `Cc1ccc(-c2nc3ccc(C)cn3c2CNc2nc(C)cc(C)n2)cc1` [Compound 148, 4,6-dimethyl-N-((6-methyl-2-p-tolylH-imidazo[1,2-a]pyridin-3-yl)methyl)pyrimidin-2-amine], the “% Inhibition at 1000 nM for CBZD” value was “++ (percentage of inhibition of central BZD site binding is greater than 80% in the presence of 1000 nM of the compound)”.
